Structures can show the parent of a compound that is named as a salt.
Each molecule was assayed against Human immunodeficiency virus type 1 reverse transcriptase (Human immunodeficiency virus 1, UniProt Q72547). Conditions: read-out: IC50 (converted).
In the case of `C[C@H]1/C(=C/C(=O)OCCN(C)C)CC[C@H]2[C@H]1C(=O)C[C@H]1C(C)(C)[C@@H](OS(=O)(=O)O)CC[C@]21C` [CASSAINE SULFATE], the IC50 is reported as > 412 µM.
In the case of `COc1cc2c3cc1Oc1cc(ccc1O)C[C@@H]1c4c(cc(OC)c(O)c4Oc4ccc(cc4)C[C@@H]3N(C)CC2)CC[N+]1(C)C`, the IC50 is reported as > 310 µM.
`C=C(C)[C@H]1Cc2c(ccc3c2O[C@@H]2COc4cc(OC)c(OC)cc4[C@@H]2C3=O)O1` [ROTENONE] was tested, and the IC50 was > 507 µM.
`C=C1c2cc3[nH]ccc3cc2CN2CC[C@@H]1/C(=C\C)C2` [PERICALLINE] was tested, and the IC50 was > 757 µM.
For `CN[C@@H](C)[C@H](O)c1ccccc1` [EPHEDRINE SULFATE], the IC50 was > 933 µM.
With `C/C=C1\CN2[C@H]3C[C@@]45c6ccccc6N(C)[C@@H]4[C@@H]2C[C@@H]1[C@@]3(C(=O)OC)C5O` (stereo not given in full) [VINCAMAJINE] the IC50 was > 546 µM.
With `CC(=O)O[C@@H]1[C@H]2[C@H]3C[C@H]4C5=Nc6ccccc6[C@]51C[C@@H]2N4[C@H](C)C3C=O` (stereo not given in full) [PERAKINE] the IC50 was > 571 µM.
For `C/C=C1/CN(C(C)=O)[C@H]2Cc3c([nH]c4ccccc34)C(=O)C[C@@H]1[C@@H]2C(=O)OC`, the IC50 was > 526 µM.
In the case of `O[C@H]1[C@H]2[C@H](O)CCCN2C[C@H]1O` [TRIDOLGOSIR], the IC50 is reported as > 1150 µM.
`C/C=C1/C=[N+]2[C@H]3C[C@H]1[C@H](C(=O)OC)[C@@H]2Cc1c3[nH]c2ccc(O)cc12` [PERICYCLIVINE] was tested, and the IC50 was > 593 µM.
`COC(=O)[C@@H]1[C@@H](OC)[C@H](OC(=O)c2cc(OC)c(OC)c(OC)c2)C=C2CN3CCc4c([nH]c5ccccc45)[C@@H]3C[C@@H]21` [DESERPIDEINE HYDROCHLORIDE] was tested, and the IC50 was > 326 µM.
`C1CCN2C[C@]34C[C@H](C[C@@H]5CCCN([C@@H]6CCC[C@@H]3N6)[C@H]54)[C@H]2C1` [PANAMINE DIPERCHLORATE] was tested, and the IC50 was > 387 µM.
In the case of `COC(=O)C1=CO[C@H](C)[C@@H]2CN3CCc4c([nH]c5cc(OC)ccc45)[C@@H]3C[C@H]12` [RAUNITIDINE], the IC50 is reported as > 523 µM.
For `CC(C)=CCC[C@](C)(O[C@@H]1O[C@H](CO)[C@@H](O)[C@H](O)[C@H]1O)[C@H]1CC[C@]2(C)[C@@H]1[C@H](O)C[C@@H]1[C@@]3(C)CC[C@H](O)C(C)(C)[C@@H]3[C@@H](O[C@@H]3O[C@H](CO)[C@@H](O)[C@H](O)[C@H]3O[C@@H]3O[C@@H](C)[C@H](O)[C@@H](O)[C@H]3O)C[C@]12C` [GINSENOSIDE RE], the IC50 was > 211 µM.
`COc1ccc2c(c1OC)C(=O)O[C@@H]2[C@H]1c2cc3c(cc2CCN1C)OCO3` [HYDRASTINE] was tested, and the IC50 was > 522 µM.
With `COC(=O)[C@H]1[C@H]2C[C@@H]3c4[nH]c5ccccc5c4CCN3C[C@H]2C[C@@H](O)[C@@H]1OC(=O)c1cc(OC)c(OC)c(OC)c1` [ISORAUNESCINE] the IC50 was > 354 µM.
With `C/C=C1/CN2[C@H]3C[C@@H]1[C@@H](CO)[C@@H]2Cc1c3[nH]c2ccc(OC)cc12` [LOCHNERINE] the IC50 was > 616 µM.
With `COC(=O)CC1(O)C=CC(=O)C=C1` [JACARANONE] the IC50 was > 1100 µM.
`COc1ccc2c(c1OC)C[N+]1(C)CCc3cc4c(cc3C1C2)OCO4` (stereo not given) [CANADINE METHCHLORIDE] was tested, and the IC50 was > 513 µM.
For `CC1=C(C)C(=O)O[C@@H]([C@](C)(O)[C@]2(O)CC[C@@]3(O)[C@@H]4C[C@H]5O[C@]56[C@@H](O)C=CC(=O)[C@]6(C)[C@H]4CC[C@]23C)C1`, the IC50 was > 398 µM.
With `COc1c([N+](=O)[O-])c2c(c3c1c(=O)c1ccccc1n3C)C=CC(C)(C)O2` [NITROACRONYCINE] the IC50 was > 546 µM.
With `C/C=C(/C)C(=O)O[C@H]1CC[C@@]2(C)[C@@H]3CC[C@H]4[C@]5(O)C[C@H](O)[C@@]6(O)[C@@H](CN7C[C@@H](C)CC[C@H]7[C@@]6(C)O)[C@]5(O)C[C@]42O[C@]13O` [VERATRINE] the IC50 was > 338 µM.
In the case of `Cn1cncc1C[C@H]1COC(=O)[C@@H]1[C@@H](O)c1ccccc1` [ISOPILOSINE], the IC50 is reported as > 698 µM.
For `CC[C@@]12CCCN3CC[C@@]4(C(=Nc5c(OC)cccc54)CC1)[C@H]32`, the IC50 was > 644 µM.
In the case of `CC[C@H]1[C@@H]2C[C@H]3[C@@H]4N(C)c5ccccc5[C@]45C[C@@H]([C@@H]2[C@H]5O)N3[C@@H]1O` [AJMALINE], the IC50 is reported as > 613 µM.
In the case of `COc1cc(C[C@H]2c3cc(OC)c(OC)cc3CCN2C)c(Oc2cc3c(cc2OC)-c2c(OC)c(OC)cc4c2[C@H](C3)N(C)CC4)cc1OC` [THALICARPINE], the IC50 is reported as > 287 µM.
`C[n+]1cc2c3c(ccc2c2ccc4cc5c(cc4c21)OCO5)OCO3` [SANGUINARINE NITRATE] was tested, and the IC50 was < 380 µM.
`CC(C)[C@](O)(C(=O)OCC1=CC[N+]2([O-])CC[C@@H](O)[C@@H]12)[C@H](C)O` (stereo not given in full) [INDICINE N-OXIDE] was tested, and the IC50 was > 634 µM.
With `C=C(C)C(O)C(O)c1cc2ccc(=O)oc2cc1OC` (stereo not given) [THAMNOSMONIN] the IC50 was > 724 µM.
`C[C@H]1CC[C@]2(NC1)O[C@H]1C[C@H]3[C@@H]4CC[C@H]5C[C@@H](O[C@@H]6O[C@H](CO)[C@H](O[C@@H]7O[C@H](CO)[C@@H](O)[C@H](O[C@@H]8OC[C@@H](O)[C@H](O)[C@H]8O)[C@H]7O[C@@H]7O[C@H](CO)[C@@H](O)[C@H](O)[C@H]7O)[C@H](O)[C@H]6O)CC[C@]5(C)[C@H]4CC[C@]3(C)[C@H]1[C@@H]2C` [TOMATINE] was tested, and the IC50 was > 193 µM.
With `C1CCN2C[C@@H]3C[C@@H](CN4CCCC[C@@H]34)[C@H]2C1` [SPARTEINE] the IC50 was > 853 µM.
In the case of `COC(=O)C1=CO[C@H](C)[C@@H]2CN3CCc4c([nH]c5ccccc45)[C@@H]3C[C@H]12` [RAUNITICINE], the IC50 is reported as > 567 µM.
With `O=C1CCC[C@H]2[C@@H]3CCCN4CCC[C@H](CN12)[C@@H]34` [LEONTINE] the IC50 was > 805 µM.
For `COc1c2c(c(O)c3ccoc13)C(=O)[C@H]1c3cc4c(cc3OC[C@H]1O2)OCO4`, the IC50 was > 523 µM.
In the case of `CC1(C)CC[C@]2(CO)[C@H](O)C[C@]3(C)C(=CC[C@@H]4[C@@]5(C)CC[C@H](O)C(C)(C)[C@@H]5CC[C@]43C)[C@@H]2C1` [PRIMULAGENIN], the IC50 is reported as > 436 µM.
`COc1cc2cc(c1Cl)N(C)C(=O)C[C@H](OC(=O)[C@H](C)N(C)C(C)=O)[C@]1(C)O[C@H]1[C@H](C)[C@@H]1C[C@@](O)(NC(=O)O1)[C@H](OC)/C=C/C=C(\C)C2` [MAYTANSINE] was tested, and the IC50 was > 289 µM.
For `C/C=C1/CN2[C@H]3C[C@H]1[C@@H](CO)[C@@H]2Cc1c3[nH]c2ccc(O)cc12` [SARPAGINE], the IC50 was > 644 µM.
With `COc1ccc2c(c[n+](C)c3c4cc5c(cc4ccc23)OCO5)c1OC` [CHELERYTHRINE CHLORIDE] the IC50 was < 521 µM.
In the case of `C[C@]12CCC(=O)C=C1CC[C@@H]1[C@@H]2CC[C@]2(C)C(=O)CC[C@@H]12` [ANDROSTENEDIONE], the IC50 is reported as > 698 µM.
`CC[C@H]1CN2CCc3cc(OC)c(OC)cc3[C@@H]2C[C@@H]1C[C@H]1NCCc2cc(OC)c(OC)cc21` was tested, and the IC50 was > 387 µM.
For `CC[C@]12CN3CCc4c([nH]c5ccccc45)[C@@](C(=O)OC)(c4cc5c(cc4OC)N(C)[C@H]4[C@@](O)(C(=O)OC)[C@H](OC(C)=O)[C@]6(CC)C=CCN7CC[C@]54[C@@H]76)C[C@@H](C3)[C@H]1O2` [VINLEUROSINE SULFATE], the IC50 was > 233 µM.
Molecule `COc1cc2c(cc1O)-c1cc3ccc(OC)c(OC)c3c[n+]1CC2` [COLUMBAMINE IODIDE] has an IC50 of 125 µM.
With `C=C1C[C@@]23CC[C@H]4[C@@](C)(CCC[C@@]4(C)C(=O)O[C@@H]4O[C@H](CO)[C@@H](O)[C@H](O)[C@H]4O)[C@@H]2CC[C@]1(O[C@@H]1O[C@H](CO)[C@@H](O)[C@H](O)[C@H]1O[C@@H]1O[C@H](CO)[C@@H](O)[C@H](O)[C@H]1O)C3` [STEVIOSIDE] the IC50 was > 248 µM.
For `COC(=O)C1=CO[C@@H](C)[C@@H]2CN3CCc4c([nH]c5ccc(OC)cc45)[C@@H]3C[C@H]12` [ARICINE], the IC50 was > 523 µM.
With `COc1cc(O)c2c(=O)cc(-c3ccc(O)c(OC)c3)oc2c1` [VELUTIN] the IC50 was > 636 µM.
With `CC[C@]1(O)C[C@H]2CN(CCc3c([nH]c4ccccc34)[C@@](C(=O)OC)(c3cc4c(cc3OC)N(C=O)[C@H]3[C@@](O)(C(=O)OC)[C@H](OC(C)=O)[C@]5(CC)C=CCN6CC[C@]43[C@@H]65)C2)C1` [VINCRISTINE] the IC50 was > 242 µM.
In the case of `COC(=O)[C@H]1[C@H]2C[C@@H]3c4[nH]c5ccccc5c4CCN3C[C@H]2C[C@@H](OC(=O)c2cc(OC)c(OC)c(OC)c2)[C@@H]1OC` [DESERPIDINE], the IC50 is reported as > 346 µM.
In the case of `CC[C@]12CCc3[nH]c4ccccc4c3CCN(C[C@H]3O[C@H]31)C2` [CONOFLORINE], the IC50 is reported as > 675 µM.
In the case of `O=C(/C=C/c1ccc(O)cc1)OC[C@H]1O[C@@H](Oc2c(-c3ccc(O)cc3)oc3cc(O)cc(O)c3c2=O)[C@H](O)[C@@H](O)[C@@H]1O` [TILIROSIDE], the IC50 is reported as < 336 µM.
In the case of `CN1[C@@H]2C[C@@H](OC(=O)[C@H](CO)c3ccccc3)C[C@H]1[C@@H]1O[C@@H]12` [SCOPOLAMINE HYDROBROMIDE], the IC50 is reported as > 456 µM.
For `CC1(C)O[C@H]2CC(=O)OC[C@]23[C@H]2CC[C@@]4(C)[C@H](c5ccoc5)OC(=O)[C@H]5O[C@]54[C@]2(C)C(=O)C[C@@H]13` [LIMONIN], the IC50 was > 425 µM.
`COc1cc2c(cc1OC)[C@@H]1Cc3ccc(OC)c(OC)c3CN1CC2` [TETRAHYDROPALMATINE] was tested, and the IC50 was > 563 µM.
With `O=C(OC[C@H]1O[C@@H](OC(=O)c2cc(O)c(O)c(OC(=O)c3cc(O)c(O)c(O)c3)c2)[C@H](OC(=O)c2cc(O)c(O)c(OC(=O)c3cc(O)c(O)c(O)c3)c2)[C@@H](OC(=O)c2cc(O)c(O)c(OC(=O)c3cc(O)c(O)c(O)c3)c2)[C@@H]1OC(=O)c1cc(O)c(O)c(OC(=O)c2cc(O)c(O)c(O)c2)c1)c1cc(O)c(O)c(OC(=O)c2cc(O)c(O)c(O)c2)c1` [TANNIC ACID] the IC50 was < 29.4 µM.
For `COc1ccc(Cc2nccc3cc(OC)c(OC)cc23)cc1OC` [PAPAVERINE], the IC50 was < 589 µM.
With `O=c1c(O)c(-c2ccc(O)cc2)oc2cc(O)cc(O)c12` [KAEMPFEROL] the IC50 was < 524 µM.
In the case of `COc1ccc(C(=O)Cc2c(CCN(C)C)cc3c(c2OC)OCO3)c(C(=O)O)c1OC` [NARCEINE], the IC50 is reported as > 449 µM.
For `COc1cc2c(cc1OC)[C@@]13CCN4CC5=CCO[C@H]6CC(=O)N2[C@H]1[C@H]6[C@H]5C[C@H]43` [BRUCINE], the IC50 was > 507 µM.
With `COc1c(O)c2c3c(nccc3c1OC)C(C)(C)c1cc(O)ccc1-2` [MELOSMINE] the IC50 was > 593 µM.
In the case of `O=c1ccc2cc(O[C@@H]3O[C@H](CO)[C@@H](O)[C@H](O)[C@H]3O)c(O)cc2o1` [ESCULIN], the IC50 is reported as > 588 µM.
`COC(=O)C1=CO[C@@H](C)[C@@H]2CN3CCc4c([nH]c5ccccc45)[C@@H]3C[C@H]12` [TETRAHYDROALSTONINE] was tested, and the IC50 was > 567 µM.
